In paper PMC10059083, “Design, Synthesis, and Biological Evaluation of Novel Hydroxamic Acid-Based Organoselenium Hybrids” (Pharmaceuticals, 2023):
Where two headings read alike, the source gives them in different places.

How the values were obtained:
[1] = tested on: MCF-7 cells; assay: MTT antiproliferative assay, MCF-7 cells; type: cell-based; settings: for IC50: Homo sapiens, MCF7, 24 h, read-out: MCF7 IC50; for MCF7 TI (therapeutic index): ratio of IC50 against WI38 cells to IC50 against MCF-7 cells
Excerpt: (§1) Recently, OSe agents have attracted interest due to their potential chemoprotective and antitumor properties. […] Therefore, we estimated the OSe agents’ antiproliferative activities against different cancer cells, i.e., MCF-7 and HepG2 cells and healthy lung fibroblast WI-38 cells, using the MTT assay. The drug doxorubicin was employed as the standard. The corresponding therapeutic indices (TI) are described as the proportion of the WI38 cells IC50 to the IC50 of the cancer cell (e.g., MCF-7 and HepG2) (Table 1).
(§2) The products’ anticancer activity was examined using the MTT assay against breast (MCF-7) carcinoma cells, liver (HepG2), and normal WI-38 cells, following the previously reported method. Experimental details can be found in the Supplementary Materials.
(§3) 1.1. The biological assays
(§4) 1.1.1. The anticancer activity
(§5) The breast adenocarcinoma (MCF-7), Hepatocellular carcinoma (HEPG-2), and normal fibroblast (WI-38) cells were obtained from ATCC via Holding company for biological products and vaccines (VACSERA), Cairo, Egypt. The reagents […] medium, MTT, DMSO, and fetal bovine serum was obtained from Sigma Aldrich. Dulbecco’s modified Eagle’s medium was used as the culture medium for the cells, and the cytotoxicity was evaluated using the reported MTT assay. Doxorubicin was used as the positive reference, and the IC50 values were obtained from the corresponding dose-response curve.
(§6) This colorimetric assay is based on converting the yellow tetrazolium bromide (MTT) to a purple formazan derivative by mitochondrial succinate dehydrogenase in viable cells. Cell lines were cultured in […] medium with 10% fetal bovine serum. Antibiotics added were 100 units/ml penicillin and 100µg/ml streptomycin at 37 C in a 5% Co2 incubator. The cell lines were seeded in a 96-well plate at a density of 1.0x10^4 cells/well. at 37 C for 48 h under 5% Co2. After incubation, the cells were treated with different concentrations of compounds and incubated for 13 […]
(§7) Finally, dimethyl sulfoxide (DMSO) in the volume of 100 µl is added to each well to dissolve the purple formazan formed. The colorimetric assay is measured and recorded at an absorbance of 570 […]
(§8) The percentage of the relative cell viability was calculated as (A570 of treated samples/A570 of the untreated sample) X 100. […]

[2] = tested on: WI-38 cells; assay: MTT cytotoxicity assay, normal lung fibroblast WI-38 cells; type: cell-based; settings: Homo sapiens, WI-38, 24 h, read-out: WI38 IC50
Excerpt: as §1, §2, §3, §4, §5, §6, §7, §8

[3] = tested on: S. aureus; assay: Agar diffusion assay, S. aureus; type: cell-based, Staphylococcus aureus; design: concentration or dose not given beside the values; settings: ratio of inhibition zone of compound to that of positive control (ampicillin)
Excerpt: (§9) The encouraging antitumor properties of the OSe compounds motivated us to evaluate their corresponding antimicrobial activities against the C. albicans fungal strain, S. aureus Gram-positive bacteria, and E. coli Gram-negative bacteria. Therefore, we applied the agar diffusion and minimum inhibitory concentration (MIC) methods using clotrimazole antifungal and ampicillin antibacterial drugs as standards.
The products’ antimicrobial properties were examined according to the previously reported method, via agar well diffusion assay against E. coli, S. aureus, and C. albicans. A microdilution method was also used to record MICs (M), following the previously reported procedure. Experimental details can be found in the Supplementary Materials. […]
(§10) 1.1.2. The antimicrobial activity
The antimicrobial activities of the OSe compounds were evaluate d against C. albicans yeast as well as E. coli gram-negative and S. aureus gram-positive bacteria employing the agar well diffusion assay.
Briefly, a concentration of 1 mM was prepared for each compound by dissolving in DMSO. Paper discs of standard size […] were sterilized in an autoclave and soaked in 9 µL of the test compounds, and placed in the Petri dishes, which in turn contain a nutrient media (agar 9 g, peptone 5 g, and beef extract 3 g) seeded with the dedicated strain. Incubation lasted for 13 h at 36 0C.
Experiments were replicated three times and the antifungal clotrimazole and antibiotic ampicillin […]

[4] = tested on: S. aureus; assay: Agar diffusion assay, S. aureus; type: cell-based; settings: Staphylococcus aureus; 6-mm disks soaked with 20 μM of the OSe agents; read-out: S. aureus ZID (inhibition zone diameter)
[5] = tested on: C. albicans; assay: Agar diffusion assay, C. albicans; type: cell-based, Candida albicans; settings: for zone of inhibition at 20 µM: Candida albicans, read-out: C. albicans ZID (inhibition zone diameter); for C. albicans IA% (activity index): ratio of inhibition zone of compound to that of positive control (clotrimazole)
[6] = tested on: HepG2 cells; assay: MTT antiproliferative assay, HepG2 cells; type: cell-based; settings: for IC50: Homo sapiens, read-out: HepG2 IC50; for HepG2 TI (therapeutic index): ratio of IC50 against WI38 cells to IC50 against HepG2 cells
Excerpt: Recently, OSe agents have attracted interest due to their potential chemoprotective and antitumor properties. We have developed several OSe compounds with promising antioxidant, antimicrobial, and antitumor properties. Therefore, we estimated the OSe agents’ antiproliferative activities against different cancer cells, i.e., MCF-7 and HepG2 cells and healthy lung fibroblast WI-38 cells, using the MTT assay. The drug doxorubicin was employed as the standard. The corresponding therapeutic indices (TI) are described as the proportion of the WI38 cells IC50 to the IC50 of the cancer cell (e.g., MCF-7 and HepG2) (Table 1).
as §2, §3, §4, §5, §6
Finally, dimethyl sulfoxide (DMSO) in the volume of 100 µl is added to each well to dissolve the purple formazan formed. The colorimetric assay is measured and recorded at an absorbance of 570 nm using a plate reader (EXL 800, USA). The percentage of the relative cell viability was calculated as (A570 of treated samples/A570 of the untreated sample) X 100. […]

[7] = tested on: E. coli; assay: Agar diffusion assay, E. coli; type: cell-based, Escherichia coli; settings: for E. coli ZID (inhibition zone diameter): 6-mm disks soaked with 20 μM of the OSe agents; for E. coli IA% (activity index): ratio of inhibition zone of compound to that of positive control (ampicillin)
Excerpt: as §9
The products’ antimicrobial properties were examined according to the previously reported method, via agar well diffusion assay against E. coli, S. aureus, and C. albicans. A microdilution method was also used to record MICs (M), following the previously reported procedure. Experimental details can be found in the Supplementary Materials.
1.1. […]
as §10
The antimicrobial activities of the OSe compounds were evaluate d against C. albicans yeast as well as E.
coli gram-negative and S. aureus gram-positive bacteria employing the agar well diffusion assay. […]
5 g, and beef extract 3 g) seeded with the dedicated strain. Incubation lasted for 13 h at 36 0C.
Experiments were replicated three times and the antifungal clotrimazole and antibiotic ampicillin
1.1.3. […]

For `CC(=O)Nc1ccc([Se]CC(=O)NOCc2ccccc2)cc1` [Compound 9, 2-((4-Acetamidophenyl)selanyl)-N-(benzyloxy)acetamide], the IC50 [1] was 45.6 ± 2.9 µM, the “MCF7 TI (therapeutic index)” value [1] was 1.9 and the IC50 [2] was 84.8 ± 4.8 µM. The “S. aureus IA% (activity index)” value [3] was 33.3%, the zone of inhibition at 20 µM [4] was 7 mm and the zone of inhibition at 20 µM [5] was 9 mm. For the same compound, the “C. albicans IA% (activity index)” value [5] was 37.5%, the IC50 ([6]; HepG2, 24 h) was 53 ± 3.2 µM and the “HepG2 TI (therapeutic index)” value [6] was 1.6. The “E. coli ZID (inhibition zone diameter)” value [7] was 6 mm and the “E. coli IA% (activity index)” value [7] was 26.1%.
With `O=C(O)C=CC(=O)Nc1ccc([Se]CC(=O)NOCc2ccccc2)cc1` [Compound 12, 4-((4-((2-((Benzyloxy)amino)-2-oxoethyl)selanyl)phenyl)amino)-4-oxobut-2-enoic Acid] the IC50 [1] was 63 ± 3.8 µM, the “MCF7 TI (therapeutic index)” value [1] was 0.6 and the IC50 [2] was 36.5 ± 2.4 µM. For the same compound, the “S. aureus IA% (activity index)” value [3] was 23.8%, the zone of inhibition at 20 µM [4] was 5 mm and the zone of inhibition at 20 µM [5] was 10 mm. For the same compound, the “C. albicans IA% (activity index)” value [5] was 41.7%, the IC50 ([6]; HepG2, 24 h) was 72.9 ± 3.7 µM and the “HepG2 TI (therapeutic index)” value [6] was 0.5. For the same compound, the “E. coli ZID (inhibition zone diameter)” value [7] was 4 mm and the “E. coli IA% (activity index)” value [7] was 17.4%.
For `CC1(C)S[C@@H]2[C@H](NC(=O)[C@H](N)c3ccccc3)C(=O)N2[C@H]1C(=O)O` [Ampicillin, ampicillin, reference compound], the “S. aureus IA% (activity index)” value [3] was 100%, the zone of inhibition at 20 µM [4] was 21 mm and the “E. coli ZID (inhibition zone diameter)” value [7] was 23 mm. For the same compound, the “E. coli IA% (activity index)” value [7] was 100%.
For `O=C(O)CCC(=O)Nc1ccc([Se]CC(=O)NOCc2ccccc2)cc1` [Compound 11, 4-((4-((2-((Benzyloxy)amino)-2-oxoethyl)selanyl)phenyl)amino)-4-oxobutanoic Acid], the IC50 [1] was 35 ± 2.5 µM, the “MCF7 TI (therapeutic index)” value [1] was 1.5 and the IC50 [2] was 52.5 ± 3.2 µM. For the same compound, the “S. aureus IA% (activity index)” value [3] was 47.6%, the zone of inhibition at 20 µM [4] was 10 mm and the zone of inhibition at 20 µM [5] was 13 mm. For the same compound, the “C. albicans IA% (activity index)” value [5] was 54.2%, the IC50 ([6]; HepG2, 24 h) was 48.8 ± 2.8 µM and the “HepG2 TI (therapeutic index)” value [6] was 1.1. The “E. coli ZID (inhibition zone diameter)” value [7] was 7 mm and the “E. coli IA% (activity index)” value [7] was 30.4%.
In the case of `O=C(C[Se]c1ccc(NC(=O)CCl)cc1)NOCc1ccccc1` [Compound 14, N-(benzyloxy)-2-((4-(2-chloroacetamido)phenyl)selanyl)acetamide], the IC50 [1] is reported as 87.4 ± 4.1 µM, the “MCF7 TI (therapeutic index)” value [1] is reported as 1.1 and the IC50 [2] is reported as over 100 µM. For the same compound, the zone of inhibition at 20 µM [5] was 4 mm, the “C. albicans IA% (activity index)” value [5] was 16.7% and the IC50 ([6]; HepG2, 24 h) was over 100 µM.
For `O=C(C[Se]c1ccc(N=Nc2ccc(O)cc2)cc1)NOCc1ccccc1` [Compound 16, N-(benzyloxy)-2-((4-((4-hydroxyphenyl)diazenyl)phenyl)selanyl)acetamide], the IC50 [1] was 33.7 ± 2.4 µM, the “MCF7 TI (therapeutic index)” value [1] was 1.9 and the IC50 [2] was 64.2 ± 3.9 µM. For the same compound, the “S. aureus IA% (activity index)” value [3] was 52.4%, the zone of inhibition at 20 µM [4] was 11 mm and the zone of inhibition at 20 µM [5] was 16 mm. The “C. albicans IA% (activity index)” value [5] was 66.7%, the IC50 ([6]; HepG2, 24 h) was 26.5 ± 2 µM and the “HepG2 TI (therapeutic index)” value [6] was 2.4. The “E. coli ZID (inhibition zone diameter)” value [7] was 9 mm and the “E. coli IA% (activity index)” value [7] was 39.1%.
`CCOC(=O)C(C#N)=NNc1ccc([Se]CC(=O)NOCc2ccccc2)cc1` [Compound 15, Ethyl 2-(2-(4-((2-((benzyloxy)amino)-2-oxoethyl)selanyl)phenyl)hydrazineylidene)-2-cyanoacetate] was tested, and the IC50 [1] was 21.6 ± 1.6 µM, the “MCF7 TI (therapeutic index)” value [1] was 3.8 and the IC50 [2] was 82 ± 4.6 µM. The “S. aureus IA% (activity index)” value [3] was 71.4%, the zone of inhibition at 20 µM [4] was 15 mm and the zone of inhibition at 20 µM [5] was 20 mm. For the same compound, the “C. albicans IA% (activity index)” value [5] was 83.3%, the IC50 ([6]; HepG2, 24 h) was 15.8 ± 1.3 µM and the “HepG2 TI (therapeutic index)” value [6] was 5.2. For the same compound, the “E. coli ZID (inhibition zone diameter)” value [7] was 12 mm and the “E. coli IA% (activity index)” value [7] was 52.2%.
Compound `COc1cccc2c1C(=O)c1c(O)c3c(c(O)c1C2=O)C[C@@](O)(C(=O)CO)C[C@@H]3O[C@H]1C[C@H](N)[C@H](O)[C@H](C)O1` [Adriamycin, doxorubicin, reference compound] has an IC50 ([6]; MTT bioassay, HepG2 cells, 24 h incubation) of 4.5 ± 0.2 µM.
